Data taken from US10183021B2, “sGC stimulators” (Ironwood Pharmaceuticals, Inc., priority 2013, dated 2019).

Target: soluble guanylate cyclase (sGC) (Homo sapiens (Human), UniProt Q02108+Q02153)
Test: sGC-HEK-cGMP assay, new protocol with DETA-NONOate, LC/MS detection (Example 2C)
Format: cell-based
Conditions: read-out: Absolute EC50 (uM) - binned

Sequence of soluble guanylate cyclase (sGC) (Q02153 whole entry): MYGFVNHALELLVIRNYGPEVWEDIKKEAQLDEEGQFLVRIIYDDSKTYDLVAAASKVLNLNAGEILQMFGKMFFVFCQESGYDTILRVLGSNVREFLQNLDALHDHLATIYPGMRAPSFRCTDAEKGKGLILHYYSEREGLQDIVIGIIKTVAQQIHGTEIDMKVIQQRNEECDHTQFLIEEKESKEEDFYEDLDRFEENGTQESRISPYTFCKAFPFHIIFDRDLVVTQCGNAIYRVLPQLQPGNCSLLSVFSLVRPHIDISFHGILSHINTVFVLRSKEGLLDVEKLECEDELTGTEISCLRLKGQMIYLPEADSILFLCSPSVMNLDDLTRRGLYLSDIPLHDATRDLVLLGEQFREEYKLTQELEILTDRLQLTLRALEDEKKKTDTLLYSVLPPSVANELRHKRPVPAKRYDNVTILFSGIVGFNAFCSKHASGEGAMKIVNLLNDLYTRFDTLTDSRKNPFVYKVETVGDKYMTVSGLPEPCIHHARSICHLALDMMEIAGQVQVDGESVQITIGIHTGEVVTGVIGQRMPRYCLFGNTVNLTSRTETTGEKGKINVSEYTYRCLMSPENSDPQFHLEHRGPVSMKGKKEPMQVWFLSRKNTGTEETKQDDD
Sequence of soluble guanylate cyclase (sGC) (Q02108 whole entry): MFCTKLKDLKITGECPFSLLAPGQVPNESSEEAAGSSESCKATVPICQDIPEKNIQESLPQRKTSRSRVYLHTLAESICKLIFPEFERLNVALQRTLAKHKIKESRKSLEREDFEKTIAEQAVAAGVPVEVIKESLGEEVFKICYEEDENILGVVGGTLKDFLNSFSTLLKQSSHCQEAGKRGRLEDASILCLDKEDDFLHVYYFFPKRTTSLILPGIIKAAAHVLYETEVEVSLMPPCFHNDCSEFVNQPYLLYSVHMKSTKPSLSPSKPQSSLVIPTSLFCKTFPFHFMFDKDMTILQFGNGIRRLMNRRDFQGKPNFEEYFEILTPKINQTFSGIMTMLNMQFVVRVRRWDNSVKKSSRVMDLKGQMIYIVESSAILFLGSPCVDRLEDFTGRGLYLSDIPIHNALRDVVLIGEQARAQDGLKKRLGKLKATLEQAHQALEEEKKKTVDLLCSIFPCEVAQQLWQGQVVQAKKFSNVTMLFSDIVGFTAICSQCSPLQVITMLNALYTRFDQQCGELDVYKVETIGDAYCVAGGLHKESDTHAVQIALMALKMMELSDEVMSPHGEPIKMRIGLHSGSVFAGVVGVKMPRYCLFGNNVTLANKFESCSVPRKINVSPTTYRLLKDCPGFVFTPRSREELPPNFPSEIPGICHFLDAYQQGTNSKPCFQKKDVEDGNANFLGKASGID

Row | Structure (SMILES) | EC50 [µM]
1 | O=C1CC(C(=O)Nc2ccnc(-c3cc(-c4ccon4)n(Cc4ccccc4F)n3)n2)CN1 (centres unmarked) [Compound I-464] | 0.101 to 1
2 | O=C(Nc1nc(-c2cc(-c3ccon3)n(Cc3ccccc3F)n2)ncc1F)C(F)(F)F [Compound I-465] | 0.101 to 1
3 | Fc1ccccc1Cn1nc(-c2ncc(F)c(NCC(F)(F)F)n2)cc1-c1ccon1 [Compound I-466] | < 0.1
4 | O=C(O)C(O)(CNc1nc(-c2cc(-c3ccon3)n(Cc3ccccc3F)n2)ncc1F)C(F)(F)F (centres unmarked) [Compound I-467] | > 1
5 | O=C(Nc1nc(-c2cc(-c3ccon3)n(Cc3ccccc3F)n2)ncc1N1CCOCC1)C(O)(C(F)(F)F)C(F)(F)F [Compound I-468] | 0.101 to 1
6 | O=C(Cc1nccs1)Nc1ccnc(-c2cc(-c3ccon3)n(Cc3ccccc3F)n2)n1 [Compound I-469] | 0.101 to 1
7 | O=C(N1CC(Nc2nc(-c3cc(-c4ccon4)n(Cc4ccccc4F)n3)ncc2F)C1)C1(O)CC1 [Compound I-470] | < 0.1
8 | O=C(CC(F)(F)F)Nc1ccnc(-c2cc(-c3ccon3)n(Cc3ccccc3F)n2)n1 [Compound I-471] | 0.101 to 1
9 | CS(=O)(=O)CS(=O)(=O)Nc1ccnc(-c2cc(-c3ccon3)n(Cc3ccccc3F)n2)n1 [Compound I-472] | > 1
10 | N#Cc1cc(-c2ncc(F)c(NCC(O)(C(F)(F)F)C(F)(F)F)n2)nn1Cc1ccccc1F [Compound I-474] | > 1
11 | CC(=O)O[C@@H](C(=O)Nc1ccnc(-c2cc(-c3ccon3)n(Cc3ccccc3F)n2)n1)C(F)(F)F [Compound I-475] | 0.101 to 1
12 | O=C(O)c1cc(-c2ncc(F)c(NCC(O)(C(F)(F)F)C(F)(F)F)n2)nn1Cc1ccccc1F [Compound I-476] | > 1
13 | O=C(Nc1nc(-c2cc(-c3ccon3)n(Cc3ccccc3F)n2)ncc1F)N1CCOCC1 [Compound I-477] | > 1
14 | O=C(Nc1ccnc(-c2cc(-c3ccon3)n(Cc3ccccc3F)n2)n1)C1(O)CC1 [Compound I-478] | < 0.1
15 | COCCS(=O)(=O)Nc1ccnc(-c2cc(-c3ccon3)n(Cc3ccccc3F)n2)n1 [Compound I-479] | 0.101 to 1
16 | CN(CC1(C(=O)O)CC1)c1nc(-c2cc(C#N)n(Cc3ccccc3F)n2)ncc1F [Compound I-480] | 0.101 to 1
17 | CN(CC1(C(=O)O)CC1)c1nc(-c2cc(C(N)=O)n(Cc3ccccc3F)n2)ncc1F [Compound I-481] | > 1
18 | O=C1OC(C(F)(F)F)CN1c1ccnc(-c2cc(-c3ccon3)n(Cc3ccccc3F)n2)n1 (centres unmarked) [Compound I-482] | > 1
19 | O=[N+]([O-])c1cnc(-c2cc(-c3ccon3)n(Cc3ccccc3F)n2)nc1NCC(O)(C(F)(F)F)C(F)(F)F [Compound I-483] | > 1
20 | Nc1cnc(-c2cc(-c3ccon3)n(Cc3ccccc3F)n2)nc1NCC(O)(C(F)(F)F)C(F)(F)F [Compound I-484] | 0.101 to 1
21 | O=C1CC(Nc2nc(-c3cc(-c4ccon4)n(Cc4ccccc4F)n3)ncc2F)CN1 (centres unmarked) [Compound I-485] | < 0.1
22 | NS(=O)(=O)CCCC(=O)Nc1ccnc(-c2cc(-c3ccon3)n(Cc3ccccc3F)n2)n1 [Compound I-486] | > 1
23 | CS(=O)(=O)CCNc1nc(-c2cc(-c3ccon3)n(Cc3ccccc3F)n2)ncc1F [Compound I-487] | < 0.1
24 | OC(CNc1nc(-c2cc(-c3ccon3)n(Cc3cccc(F)c3F)n2)ncc1F)(C(F)(F)F)C(F)(F)F [Compound I-488] | 0.101 to 1
25 | O=C(O)C(O)(CNc1nc(-c2cc(-c3ccon3)n(Cc3cccc(F)c3F)n2)ncc1F)C(F)(F)F (centres unmarked) [Compound I-489] | > 1

Row | Structure (SMILES) | EC50 [µM]
26 | O=C(CC(O)(C(F)(F)F)C(F)(F)F)Nc1ccnc(-c2cc(-c3ccon3)n(Cc3ccccc3F)n2)n1 [Compound I-490] | 0.101 to 1
27 | O=S(=O)(Cc1ccc(F)cc1)Nc1ccnc(-c2cc(-c3ccon3)n(Cc3ccccc3F)n2)n1 [Compound I-491] | 0.101 to 1
28 | O=C1Nc2nc(-c3cc(-c4ccon4)n(Cc4ccccc4F)n3)ncc2OC1(C(F)(F)F)C(F)(F)F [Compound I-492] | 0.101 to 1
29 | O=C(NC1CC1)C(Nc1nc(-c2cc(-c3ccon3)n(Cc3ccccc3F)n2)ncc1F)C(F)(F)F (centres unmarked) [Compound I-493] | 0.101 to 1
30 | CC1(C)CCN(c2ccnc(-c3cc(-c4ccon4)n(Cc4ccccc4F)n3)n2)C1=O [Compound I-494] | 0.101 to 1
31 | [2H]C([2H])(O)C([2H])([2H])Nc1nc(-c2cc(-c3ccon3)n(Cc3ccccc3F)n2)ncc1F [Compound I-495] | < 0.1
32 | Cc1nnc(CNc2nc(-c3cc(-c4ccon4)n(Cc4ccccc4F)n3)ncc2F)o1 [Compound I-496] | < 0.1
33 | CC(=O)OCC(=O)Nc1ccnc(-c2cc(-c3ccon3)n(Cc3ccccc3F)n2)n1 [Compound I-497] | 0.101 to 1
34 | CC(=O)OCC(=O)Nc1nc(-c2cc(-c3ccon3)n(Cc3ccccc3F)n2)ncc1F [Compound I-498] | 0.101 to 1
35 | O=C(CO)Nc1ccnc(-c2cc(-c3ccon3)n(Cc3ccccc3F)n2)n1 [Compound I-499] | > 1
36 | OC(CNc1ccnc(-c2cc(-c3ccon3)n(Cc3ccccc3F)n2)n1)(C(F)(F)F)C(F)(F)F [Compound I-500] | 0.101 to 1
37 | O=C1CCC(C(F)(F)F)N1c1nc(-c2cc(-c3ccon3)n(Cc3ccccc3F)n2)ncc1F (centres unmarked) [Compound I-501] | > 1
38 | OCC1(Nc2nc(-c3cc(-c4ccon4)n(Cc4ccccc4F)n3)ncc2F)CC1 [Compound I-502] | 0.101 to 1
39 | O=S1(=O)CCCN1c1nc(-c2cc(-c3ccon3)n(Cc3ccccc3F)n2)ncc1F [Compound I-503] | 0.101 to 1
40 | O=C1OCC(C(F)(F)F)N1c1ccnc(-c2cc(-c3ccon3)n(Cc3ccccc3F)n2)n1 (centres unmarked) [Compound I-504] | > 1
41 | CC(C)S(=O)(=O)Nc1nc(-c2cc(-c3ccon3)n(Cc3ccccc3F)n2)ncc1F [Compound I-505] | 0.101 to 1
42 | Oc1nc(-c2cc(-c3ccon3)n(CCC(F)(F)F)n2)ncc1F [Compound I-507] | > 1
43 | CC(C)C(Nc1nc(-c2cc(-c3ccon3)n(Cc3ccccc3F)n2)ncc1F)C(=O)NC1CC1 (centres unmarked) [Compound I-508] | < 0.1
44 | Fc1ccccc1Cn1nc(-c2ncc(F)c(NCCSC(F)(F)F)n2)cc1-c1ccon1 [Compound I-509] | < 0.1
45 | COC(=O)CS(=O)(=O)Nc1ccnc(-c2cc(-c3ccon3)n(Cc3ccccc3F)n2)n1 [Compound I-510] | 0.101 to 1
46 | NC(=O)CNc1nc(-c2cc(-c3ccon3)n(CCC(F)(F)F)n2)ncc1F [Compound I-511] | > 1
47 | CC1(C)CCC(=O)N1c1nc(-c2cc(-c3ccon3)n(Cc3ccccc3F)n2)ncc1F [Compound I-512] | > 1
48 | Nc1nc(-c2cc(-c3ccon3)n(CCC(F)(F)F)n2)ncc1F [Compound I-513] | > 1
49 | O=S(=O)(CCNc1nc(-c2cc(-c3ccon3)n(Cc3ccccc3F)n2)ncc1F)C(F)(F)F [Compound I-514] | < 0.1
50 | NC(=O)C1(CNc2nc(-c3cc(-c4ccon4)n(Cc4ccccc4F)n3)ncc2F)CC1 [Compound I-515] | < 0.1

Row | Structure (SMILES) | EC50 [µM]
51 | OC(CNc1nc(-c2cc(-c3ccon3)n(CCC(F)(F)F)n2)ncc1F)(C(F)(F)F)C(F)(F)F [Compound I-516] | > 1
52 | CCN(CC)c1nc(-c2cc(-c3ccon3)n(CCC(F)(F)F)n2)ncc1F [Compound I-517] | > 1
53 | NC(CNc1nc(-c2cc(-c3ccon3)n(Cc3ccccc3F)n2)ncc1F)C(F)(F)F (centres unmarked) [Compound I-518] | < 0.1
54 | CC(C)(C)OC(=O)NCC(=O)Nc1ccnc(-c2cc(-c3ccon3)n(Cc3ccccc3F)n2)n1 [Compound I-519] | 0.101 to 1
55 | NCC(=O)Nc1ccnc(-c2cc(-c3ccon3)n(Cc3ccccc3F)n2)n1 [Compound I-520] | 0.101 to 1
56 | OCC(F)(F)CNc1nc(-c2cc(-c3ccon3)n(Cc3ccccc3F)n2)ncc1F [Compound I-521] | < 0.1
57 | NC(=O)C(O)(CNc1nc(-c2cc(-c3ccon3)n(Cc3cccc(F)c3F)n2)ncc1F)C(F)(F)F (centres unmarked) [Compound I-522] | < 0.1
58 | CN(CC1(C(=O)O)CC1)c1nc(-c2cc(-c3ccon3)n(CCC(F)(F)F)n2)ncc1F [Compound I-523] | > 1
59 | CC(=O)Nc1ccnc(-c2cc(-c3ccon3)n(Cc3ccccc3F)n2)n1 [Compound I-524] | > 1
60 | O=C(Nc1ccnc(-c2cc(-c3ccon3)n(Cc3ccccc3F)n2)n1)C1(OCc2ccccc2)CCOCC1 [Compound I-525] | > 1
61 | CC1(S(C)(=O)=O)CCN(c2nc(-c3cc(-c4ccon4)n(Cc4ccccc4F)n3)ncc2F)C1=O (centres unmarked) [Compound I-526] | > 1
62 | CC(CCO)(C(=O)Nc1nc(-c2cc(-c3ccon3)n(Cc3ccccc3F)n2)ncc1F)S(C)(=O)=O (centres unmarked) [Compound I-527] | 0.101 to 1
63 | COCC(=O)Nc1ccnc(-c2cc(-c3ccon3)n(Cc3ccccc3F)n2)n1 [Compound I-528] | > 1
64 | CN(CC(O)(C(F)(F)F)C(F)(F)F)c1nc(-c2cc(-c3ccon3)n(Cc3ccccc3F)n2)ncc1F [Compound I-529] | > 1
65 | NC(=O)[C@@](O)(CNc1nc(-c2cc(-c3ccon3)n(Cc3ccccc3F)n2)ncc1F)C(F)(F)F [Compound I-530] | 0.101 to 1
66 | NC(=O)[C@](O)(CNc1nc(-c2cc(-c3ccon3)n(Cc3ccccc3F)n2)ncc1F)C(F)(F)F [Compound I-531] | < 0.1
67 | O=C(Nc1ccnc(-c2cc(-c3ccon3)n(Cc3ccccc3F)n2)n1)c1cocn1 [Compound I-532] | > 1
68 | O=C1CCC(=O)N1c1nc(-c2cc(-c3ccon3)n(Cc3ccccc3F)n2)ncc1F [Compound I-533] | 0.101 to 1
69 | NC(=O)C1CCC(=O)N1c1nc(-c2cc(-c3ccon3)n(Cc3ccccc3F)n2)ncc1F (centres unmarked) [Compound I-534] | > 1
70 | CC(=O)NCC(=O)Nc1ccnc(-c2cc(-c3ccon3)n(Cc3ccccc3F)n2)n1 [Compound I-535] | 0.101 to 1
71 | CC(C)[C@@H](Nc1nc(-c2cc(-c3ccon3)n(Cc3ccccc3F)n2)ncc1F)C(N)=O [Compound I-536] | < 0.1
72 | CC(C)[C@H](Nc1nc(-c2cc(-c3ccon3)n(Cc3ccccc3F)n2)ncc1F)C(N)=O [Compound I-537] | < 0.1
73 | NC(=O)C1(Nc2nc(-c3cc(-c4ccon4)n(Cc4ccccc4F)n3)ncc2F)CC1 [Compound I-538] | < 0.1
74 | O=S(=O)(CCO)Nc1ccnc(-c2cc(-c3ccon3)n(Cc3ccccc3F)n2)n1 [Compound I-539] | > 1
